Laboratory results reported in patent US11465994B2, “MGluR7 agonist compounds for treating mGluR7-regulated diseases, disorders, or conditions” (Takeda Pharmaceutical Company Limited, priority 2016, dated 2022).

How the values were obtained:
[1] = biological target: T1, mGluR7 (Homo sapiens, UniProt Q14831); experiment: cAMP CRE-luciferase reporter gene assay (Steady Glo) in CHO-CRE-luc cells stably expressing human mGluR7; type: cell-based; design: expressed in transfected cells; settings: reduction of forskolin stimulated cAMP (luminescence); CHO CRE-luc human mGluR7; read-out: EC50
Protocol: Compound activities were determined in CHO-CRE-luc cells stably expressing hu/mo mGluR7, using a cAMP reporter gene assay (Steady Glo, Promega). Selectivity was assessed in stable CHO-mGluR4 cells (DiscoverX) and CHO-mGluR8 transients using an HTRF cAMP assay (Cisbio).
The ability of the test compounds to activate mGluR7 was determined by their ability to reduce forskolin stimulated cAMP production. Compounds were assessed in a CRE-directed luciferase reporter gene assay, using a stable CHO cell line expressing the CRE-luc reporter and human mGluR7 genes. In this cell line, production of cAMP stimulated the transcription of the luciferase gene and luciferase activity was then measured in a luminescent enzyme assay (Steady Glo assay; Promega E2550). Activation of mGluR7 decreased the forskolin stimulated luminescence signal.
The day prior to the assay, compounds were serially diluted in DMSO (100× final assay concentration (FAC)), in 384-well plates which were then stored in the dark at room temperature (RT) until use. Cells were seeded at 12.5 k/well in white, clear bottom 384-well plates (Corning 3707) and left for one hour at RT followed by an overnight incubation (37° C.). The following day, the DMSO compound plate was diluted 1:20 (5×FAC) in Opti-MEM I (Life Technologies 11058021). The growth media was removed from the cell plate and replaced with 15 μl Opti-MEM I, followed by a 5 μl addition from the 5× compound plate and a fifteen minute incubation (37° C.). Forskolin (Sigma F3917) was then added to the wells (5 μl of 2.5 μM) and the plate was incubated for five hours (37° C.). During this incubation, the Steady Glo Substrate reagent was warmed to 37° C. Aliquots (11 ml; stored at −20° C.) of this reagent were prepared by dissolving the contents of 1 vial of lyophilised substrate in 100 ml Steady-Glo buffer. A 25 μl addition of the substrate was made to all wells and the plate was incubated for thirty minutes at RT, on a plate shaker (300 rpm; in the dark). Luminescence was then measured using the EnVision Multilabel Reader (Perkin Elmer).
Compound activity was examined using a 10-point, half log concentration-response range and each concentration was tested in duplicate wells. Luminescence values were normalised to ‘maximum’ (forskolin alone) and ‘minimum’ (forskolin in the presence of tool mGluR7 agonist) controls.

[2] = biological target: T1, mGluR7; experiment: Kinetic impedance assay (desensitization) in stable CHO-mGluR7 cells, response to tool activator CPD A after pre-treatment; type: cell-based; settings: pre-treatment 1 hour (EC80), FIG. 1B
Protocol: Stable CHO-mGluR7 cells (DiscoverX) were pre-incubated with compounds (EC80, 1 h), washed and after 30 min, impedance changes upon addition of a tool mGluR7 activator (CPD A) were determined (Cellkey, Molecular Devices).

T1 sequence (Q14831 35-915): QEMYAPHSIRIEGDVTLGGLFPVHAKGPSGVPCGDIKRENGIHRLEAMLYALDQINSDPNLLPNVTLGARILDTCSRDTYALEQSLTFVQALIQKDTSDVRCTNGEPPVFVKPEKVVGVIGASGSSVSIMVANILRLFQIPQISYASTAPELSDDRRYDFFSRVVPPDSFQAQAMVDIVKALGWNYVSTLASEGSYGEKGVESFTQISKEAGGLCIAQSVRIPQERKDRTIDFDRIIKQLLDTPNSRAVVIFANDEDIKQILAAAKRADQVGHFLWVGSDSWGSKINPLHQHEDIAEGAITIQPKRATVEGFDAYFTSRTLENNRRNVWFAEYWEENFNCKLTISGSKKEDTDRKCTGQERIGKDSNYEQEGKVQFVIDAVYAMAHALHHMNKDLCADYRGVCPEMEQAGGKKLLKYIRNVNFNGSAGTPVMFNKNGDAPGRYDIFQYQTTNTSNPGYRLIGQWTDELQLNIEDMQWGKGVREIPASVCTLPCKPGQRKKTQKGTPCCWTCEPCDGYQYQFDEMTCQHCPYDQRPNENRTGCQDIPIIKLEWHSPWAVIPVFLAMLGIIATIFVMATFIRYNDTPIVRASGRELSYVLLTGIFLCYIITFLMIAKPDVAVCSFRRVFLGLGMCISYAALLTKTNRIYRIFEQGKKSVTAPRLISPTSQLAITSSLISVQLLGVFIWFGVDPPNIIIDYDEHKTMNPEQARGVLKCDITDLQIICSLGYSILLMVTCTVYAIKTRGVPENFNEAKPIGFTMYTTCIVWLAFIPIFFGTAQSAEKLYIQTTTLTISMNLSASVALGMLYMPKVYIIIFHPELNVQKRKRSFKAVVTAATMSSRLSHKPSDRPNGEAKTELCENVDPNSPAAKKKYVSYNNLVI

Row | EC50 [1] | SMILES | other results
1 | 20 nM | CO[C@@H]1c2ccccc2OC[C@H]1NC(=O)C(c1ccc(F)cc1)N1CC(OC(F)(F)F)C1 (relative stereo) [Example 24, 2-(4-fluorophenyl)-N-((trans)-4-methoxy-3,4-dihydro-2H-1-benzopyran-3-yl)-2-[3-(trifluoromethoxy)azetidin-1-yl]acetamide] | –
2 | 68 nM | C[C@H](C(=O)NC1COc2ccccc2C1O)c1ccccc1 (single isomer, unassigned) [Example 5] | –
3 | 96 nM | C[C@H](C(=O)NC1COc2ccccc2C1O)c1ccccc1 (single isomer, unassigned) [Example 2] | –
4 | 23 nM | COC1c2ccccc2OCC1NC(=O)[C@@H]1c2ccccc2CC(=O)N1CCCF (single isomer, unassigned) [Example 26] | –
5 | 14 nM | CO[C@@H]1c2ccccc2OC[C@H]1NC(=O)C1c2ccccc2CC(=O)N1CC1CCOCC1 (relative stereo) [Example 28, N-((trans)-4-methoxy-3,4-dihydro-2H-1-benzopyran-3-yl)-2-[(oxan-4-yl)methyl]-3-oxo-1,2,3,4-tetrahydroisoquinoline-1-carboxamide] | –
6 | 1650 nM | CNC1c2ccccc2OCC1NC(=O)[C@@H](C)c1ccccc1 (single isomer, unassigned) [Example 10] | –
7 | 874 nM | C[C@H](C(=O)NC1COc2ccccc2C1O)c1ccccc1 (single isomer, unassigned) [Example 1] | –
8 | 55 nM | COC1c2ccccc2OCC1NC(=O)[C@@H](C)c1ccccc1 (single isomer, unassigned) [Example 11] | –
9 | 300 nM | CO[C@@H]1c2ccccc2OC[C@H]1NC(=O)C(c1ccc(F)cc1F)n1ccccc1=O (relative stereo) [Example 32, 2-(2,4-difluorophenyl)-N-((trans)-4-methoxy-3,4-dihydro-2H-1-benzopyran-3-yl)-2-(2-oxo-1,2-dihydropyridin-1-yl)acetamide] | –
10 | 6 nM | COC1c2ccccc2OCC1NC(=O)[C@@H]1c2ccccc2CC(=O)N1CC1CC1 (single isomer, unassigned) [Example 19] | –
11 | 54 nM | CO[C@@H]1c2ccccc2OC[C@H]1NC(=O)C(Oc1ccnc(C)n1)c1ccc(F)cc1F (relative stereo) [Example 31, 2-(2,4-difluorophenyl)-N-((trans)-4-methoxy-3,4-dihydro-2H-1-benzopyran-3-yl)-2-[(2-methylpyrimidin-4-yl)oxy]acetamide] | –
12 | 22 nM | COC1c2ccccc2OCC1NC(=O)[C@@H]1c2ccccc2CC(=O)N1CCCF (single isomer, unassigned) [Example 27] | –
13 | 4990 nM | CNC1c2ccccc2OCC1NC(=O)[C@@H](C)c1ccccc1 (single isomer, unassigned) [Example 9] | –
14 | 15 nM | COC1c2ccccc2OCC1NC(=O)[C@@H]1c2ccccc2CC(=O)N1CC1CC1 (single isomer, unassigned) [Example 18] | –
15 | 65 nM | CNC1c2ccccc2OCC1NC(=O)[C@@H](C)c1ccccc1 (stereo in doubt) [Example 14, (2S)—N-[(trans)-4-(methylamino)-3,4-dihydro-2H-1-benzopyran-3-yl]-2-phenylpropanamide] | –
16 | 14 nM | COC1c2ccccc2OCC1NC(=O)[C@@H]1c2ccccc2CC(=O)N1CC1CC1 (stereo in doubt) [Example 15, (1S)-2-(cyclopropylmethyl)-N-((trans)-4-methoxy-3,4-dihydro-2H-1-benzopyran-3-yl)-3-oxo-1,2,3,4-tetrahydroisoquinoline-1-carboxamide] | –
17 | 11 nM | CO[C@@H]1c2ccccc2OC[C@H]1NC(=O)C(OCC1CC1)c1ccc(F)cc1 (relative stereo) [Example 30, 2-(cyclopropylmethoxy)-2-(4-fluorophenyl)-N-((trans)-4-methoxy-3,4-dihydro-2H-1-benzopyran-3-yl)acetamide] | –
18 | 8 nM | CO[C@@H]1c2ccccc2OC[C@H]1NC(=O)C1c2ccccc2CC(=O)N1Cc1ccccn1 (relative stereo) [Example 29, N-((trans)-4-methoxy-3,4-dihydro-2H-1-benzopyran-3-yl)-3-oxo-2-[(pyridin-2-yl)methyl]-1,2,3,4-tetrahydroisoquinoline-1-carboxamide] | –

Second part, the molecule before the results:

Row | SMILES | EC50 [1] | other results
19 | C[C@H](C(=O)NC1COc2ccccc2C1O)c1ccccc1 (single isomer, unassigned) [Example 6] | 101 nM | –
20 | CO[C@@H]1c2ccccc2OC[C@H]1NC(=O)C(c1ccc(F)cc1F)N1CC(OC(F)(F)F)C1 (relative stereo) [Example 25, 2-(2,4-difluorophenyl)-N-((trans)-4-methoxy-3,4-dihydro-2H-1-benzopyran-3-yl)-2-[3-(trifluoromethoxy)azetidin-1-yl]acetamide] | 27 nM | –
21 | C[C@H](C(=O)NC1COc2ccccc2C1N1CCOCC1)c1ccc(F)cc1 (single isomer, unassigned) [Example 39] | 23 nM | –
22 | C[C@H](C(=O)NC1COc2ccccc2C1=O)c1ccccc1 (stereo partly drawn) [Example 4, (2S)—N-(4-oxo-3,4-dihydro-2H-1-benzopyran-3-yl)-2-phenylpropanamide] | 860 nM | –
23 | C[C@H](C(=O)NC1COc2ccccc2C1N1CCC(F)(F)C1)c1ccc(F)cc1 (single isomer, unassigned) [Example 38] | 30 nM | –
24 | C[C@H](C(=O)NC1COc2ccccc2C1(C)O)c1ccccc1 (single isomer, unassigned) [Example 7] | 911 nM | –
25 | CNC1c2ccccc2OCC1NC(=O)[C@@H](C)c1ccc(F)cc1 (single isomer, unassigned) [Example 23] | 110 nM | –
26 | C[C@H](C(=O)NC1COc2ccccc2C1S(C)(=O)=O)c1ccc(Cl)cc1 (single isomer, unassigned) [Example 20] | 10 nM | –
27 | C[C@H](C(=O)NC1COc2ccccc2C1S(C)(=O)=O)c1ccc(F)cc1 (single isomer, unassigned) [Example 17] | 28 nM | –
28 | C[C@H](C(=O)NC1COc2ccccc2C1N(C)C)c1ccc(F)cc1 (single isomer, unassigned) [Example 37] | 55 nM | –
29 | C[C@H](C(=O)NC1COc2ccccc2C1S(C)(=O)=O)c1ccccc1 (single isomer, unassigned) [Example 13] | 26 nM | –
30 | CNC(=O)c1ccccc1C(=O)NC1c2ccccc2OCC1NC(=O)[C@@H](C)c1ccc(F)cc1 (single isomer, unassigned) [Example 33] | 700 nM | –
31 | C[C@H](C(=O)NC1COc2ccccc2C1N1CCCC1)c1ccc(F)cc1 (single isomer, unassigned) [Example 35] | 62 nM | –
32 | CNC1c2ccccc2OCC1NC(=O)[C@@H](C)c1ccc(F)cc1 (single isomer, unassigned) [Example 22] | 69 nM | –
33 | C[C@H](C(=O)NC1COc2ccccc2C1S(C)(=O)=O)c1ccc(Cl)cc1 (single isomer, unassigned) [Example 21] | 33 nM | –
34 | C[C@H](C(=O)NC1COc2ccccc2C1N1CCC1)c1ccc(F)cc1 (single isomer, unassigned) [Example 36] | 33 nM | –
35 | Cl.Cl.c1ccc(C(NCCNC(c2ccccc2)c2ccccc2)c2ccccc2)cc1 [AMN082, N,N′-dibenzhydrylethane-1,2-diamine dihydrochloride] | – | EC50 of subsequent response to CPD A increased [2]: 5 fold; Emax ([2]; read-out: Emax of subsequent response to CPD A reduced by): 75%
36 | C[C@H](C(=O)NC1COc2ccc(F)cc2C1O)c1ccccc1 (stereo in doubt) [Example 3, (2S)—N-((cis)-6-fluoro-4-hydroxy-3,4-dihydro-2H-1-benzopyran-3-yl)-2-phenylpropanamide] | 1200 nM | –
37 | C[C@H](C(=O)NC1COc2ccccc2C1S(C)(=O)=O)c1ccccc1 (single isomer, unassigned) [Example 12] | 7 nM | –
38 | CNC(=O)c1ccccc1C(=O)NC1c2ccccc2OCC1NC(=O)[C@@H](C)c1ccc(F)cc1 (single isomer, unassigned) [Example 34] | 97 nM | –
39 | C[C@H](C(=O)NC1COc2ccccc2C1(C)O)c1ccccc1 (single isomer, unassigned) [Example 8] | 274 nM | –
